The results in this text go back to patent US20260158023A1, “APOMORPHINE FOR TREATING OR IMPROVING POST-TRAUMATIC STRESS DISORDER” (priority 2024, published 2026).

The structures appear in SMILES notation.

Data set [1] concerns one-time persistent stress post-traumatic stress model. As to the kind of experiment: elevated plus maze test in one-time persistent stress model. The conditions noted are these: after apomorphine administration. It counts as in vivo, mice.
The subject of data set [2] is normal mice (drd4 WT). In words: stimulus identification fear conditioning experiment in one-time persistent stress model, normal mice (drd4 WT). It is filed as in vivo. The conditions noted are these: as in Example 2.3.
In data set [3] the test system is one-time persistent stress post-traumatic stress model. In words: stimulus identification fear conditioning experiment in one-time persistent stress model. It is filed as in vivo, mice. The conditions noted are these: for CS-freezing: one week after one-time persistent stress; for fear response to safety stimuli: one-time persistent stress model. The method, then: (§1) C57BL/6 mice were stressed by restricting movement for 2 hours (restraint stress), and one week later, two sounds were simultaneously applied: one with sound-only (safety stimuli) and the other with sound paired with electrical stimulation (fear stimuli). The next day, generalization, the freezing level to the safety stimulus (CS-), which is one of the indicators of post-traumatic stress disorder, was measured through fear responses to the two sounds (stimulus identification fear conditioning experiment).
(§2) In order to strengthen the fear response to safety stimuli, a one-time persistent stress was introduced to apply stronger stress. The one-time persistent stress consists of the existing 2-hour restraint stress, 10-minute forced swim test, and 5-minute ether anesthesia.
We observed the fear response in a stimulus identification fear conditioning experiment when apomorphine (1 ug/kg, 3 ug/kg) was administered one week after a one-time persistent stress, which is a more powerful post-traumatic stress model.
In order to compare the effect of apomorphine with that of the existing treatment, paroxetine, a stimulus identification fear conditioning experiment was conducted after stress was applied under the same conditions.

In data set [4] the test system is mice lacking drd4 receptors (drd4 KO). As to the kind of experiment: stimulus identification fear conditioning experiment in one-time persistent stress model, mice lacking drd4 receptors (drd4 KO). It counts as in vivo. The conditions noted are these: as in Example 2.3.
Data set [5] concerns one-time persistent stress post-traumatic stress model. In words: open field test in one-time persistent stress model. The conditions noted are these: after apomorphine administration. It is filed as in vivo, mice.
Text: as §2
The level of anxiety symptoms can be determined through the time spent in the center in the open field test.

For data set [6], the system named is restraint stress post-traumatic stress model (C57BL/6 mice). In words: stimulus identification fear conditioning experiment in restraint stress model of post-traumatic stress disorder. It counts as in vivo. The conditions noted are these: administered 30 minutes before the fear test. The method, then:
as §1
To confirm the effect of apomorphine on the post-traumatic stress model according to concentration, apomorphine of different concentrations was administered 30 minutes before the fear test.

Take `CN1CCc2cccc3c2[C@H]1Cc1ccc(O)c(O)c1-3` [apomorphine, Apomorphine]: in data set [1], the “time spent in the open arm in the elevated plus maze test” value is given as “significantly increased”. The “fear response compared to vehicle administration” value in data set [2] was “decreased”. Further, the CS-freezing result in data set [3] (1 ug/kg) is “decreased”; in data set [3] (3 ug/kg), “did not change”. In addition, in data set [4], the “fear response between apomorphine administration and vehicle administration” value was “no difference”. Besides, the “mean distance in the open field test (overall walking function)” value in data set [5] is on record as “no difference”. Further, the “time spent in the center in the open field test” value in data set [5] is given as “significantly increased”. The “CS-freezing (freezing level to the safety stimulus)” value in data set [6] (1 ug/kg) is recorded as “decreased”; in data set [6] (3 ug/kg), “did not change”.

On to `Fc1ccc([C@@H]2CCNC[C@H]2COc2ccc3c(c2)OCO3)cc1` [paroxetine], for which the “fear response to safety stimuli” value in data set [3] (5 ug/kg) is “no significant difference”; in data set [3] (all concentrations: 150 ug/kg, 300 ug/kg and 500 ug/kg) it was “reduced”.
